Patent publication US10167283B2, “β-lactamase inhibitors and uses thereof” (priority 2015, dated 2019)
Counter-ions that a name gives are not always drawn. Like-named read-outs stand apart in the source and are kept apart here.

Tests used:
AmpC = molecular target: T1, AmpC (UniProt P05364); experiment: β-lactamase inhibition, Nitrocefin hydrolysis; assay type: biochemical; conditions: Nitrocefin 0.1 mM
T1 construct: The concentration of purchased β-lactamases mother liquor was 1 mg/mL, and the mother liquor was dissolved in 50% glycerol
Protocol: (§1) Nitrocefin, a kind of cephalosporin antibiotics, is sensitive to most of β-lactamases, and changes in color after being hydrolyzed. The hydrolysis rate of Nitrocefin was measured by real-time recording corresponding absorbance of reaction system. β-Lactamase inhibitors could inhibit hydrolysis of the enzymes to Nitrocefin, and reduce hydrolysis rate. By measuring reaction rates in the same reaction system under different inhibitor concentrations, the IC50 (half maximal inhibitory concentration) values of inhibitors were calculated.
(§2) Nitrocefin was dissolved in DMSO to form a solution with concentration of 2 mM, which was sub-packaged and stored at −20° C. The concentration of purchased β-lactamases mother liquor was 1 mg/mL, and the mother liquor was dissolved in 50% glycerol. A part of mother liquor was taken and diluted by 1000 times in reaction solution, sub-packaged and stored at ˜20° C.
(§3) The compounds to be tested were dissolved in DMSO to form a mother liquor with concentration of 10 mM. If not used that day, the mother liquor was stored at −20° C. Its test final concentrations were: 100 μM, 25 μM, 6.25 μM, 1.563 μM, 390.6 nM, 97.66 nM, 24.41 nM, 6.10 nM, 1.53 nM, 0.381 nM, 0.095 nM.

[1] = cited from earlier work
[2] = test system: Klebsiella pneumoniae BAA-2146 (NDM-1); experiment: In vitro antibacterial activity, agar dilution MIC; assay type: cell-based; conditions: NDM-1, read-out: MIC
Outline: (§4)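 MIC (μg/mL) read by agar dilution, CLSI M100-S23 guidance; strains were ATCC enzyme-producing standards or hospital CRE isolates.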

[3] = test system: Klebsiella oxytoca ATCC-51983 (SHV-5); experiment: In vitro antibacterial activity, agar dilution MIC; assay type: cell-based; conditions: ATCC51983; Table 2; ATCC-51983 Klebsiella oxytoca, SHV-5; read-out: MIC
Outline: as §4

[4] = test system: Escherichia coli BAA-2340 (KPC); experiment: In vitro antibacterial activity, agar dilution MIC; assay type: cell-based; conditions: BAA2340, Table 2, BAA-2340 Escherichia coli
Outline: as §4

[5] = test system: Klebsiella pneumoniae BAA-2524 (OXA-48); experiment: In vitro antibacterial activity, agar dilution MIC; assay type: cell-based; conditions: BAA2524; Table 2; BAA-2524 Klebsiella pneumoniae, OXA-48; read-out: MIC
Outline: as §4

CTX-M-1 = molecular target: T2, CTX-M-1 (Escherichia coli, UniProt P28585); experiment: β-lactamase inhibition, Nitrocefin hydrolysis; assay type: biochemical; conditions: Experiment 2; enzyme 0.2 nM, Nitrocefin 0.1 mM
T2 construct: purchased
T2 sequence (P28585 29-291): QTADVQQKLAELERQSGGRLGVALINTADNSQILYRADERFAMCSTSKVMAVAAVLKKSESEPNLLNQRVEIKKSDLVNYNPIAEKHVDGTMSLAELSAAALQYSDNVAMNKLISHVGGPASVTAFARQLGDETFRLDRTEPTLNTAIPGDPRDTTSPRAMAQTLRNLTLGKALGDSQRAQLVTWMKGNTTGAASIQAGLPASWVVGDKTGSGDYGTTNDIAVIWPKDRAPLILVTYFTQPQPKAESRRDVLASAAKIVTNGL
Protocol: as §1, §2, §3

KPC-2 = molecular target: T3, KPC-2 (Klebsiella pneumoniae, UniProt Q9F663); experiment: β-lactamase inhibition, Nitrocefin hydrolysis; assay type: biochemical; conditions: Nitrocefin 0.1 mM
T3 construct: purchased
T3 sequence (Q9F663 25-293, looked up, species assumed): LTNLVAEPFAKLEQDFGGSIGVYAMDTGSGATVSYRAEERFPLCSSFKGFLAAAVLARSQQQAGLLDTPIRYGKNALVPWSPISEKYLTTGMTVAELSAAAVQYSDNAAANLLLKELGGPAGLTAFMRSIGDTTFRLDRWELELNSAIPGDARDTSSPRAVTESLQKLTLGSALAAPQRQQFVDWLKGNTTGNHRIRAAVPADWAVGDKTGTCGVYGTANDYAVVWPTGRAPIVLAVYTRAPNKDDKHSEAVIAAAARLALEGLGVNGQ
Protocol: as §1, §2, §3

OXA-10 = molecular target: T4, OXA-10 (Pseudomonas aeruginosa, UniProt P14489); experiment: β-lactamase inhibition, Nitrocefin hydrolysis; assay type: biochemical; conditions: Experiment 3; enzyme 10 nM, Nitrocefin 0.1 mM; read-out: IC50 Type D OXA-10
T4 construct: purchased
T4 sequence (P14489 20-266, species assumed): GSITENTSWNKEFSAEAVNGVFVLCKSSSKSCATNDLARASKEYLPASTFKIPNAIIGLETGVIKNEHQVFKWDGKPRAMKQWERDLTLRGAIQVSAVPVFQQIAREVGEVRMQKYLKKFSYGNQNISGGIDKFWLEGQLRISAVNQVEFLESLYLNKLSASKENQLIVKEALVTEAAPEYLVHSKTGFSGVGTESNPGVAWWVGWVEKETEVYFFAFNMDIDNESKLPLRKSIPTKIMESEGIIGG
Protocol: as §1, §2, §3

TEM-1 = molecular target: T5, TEM-1 (Escherichia coli, UniProt P62593); experiment: β-lactamase inhibition, Nitrocefin hydrolysis; assay type: biochemical; conditions: Nitrocefin 0.1 mM
T5 construct: purchased
T5 sequence (P62593 24-286 limits assumed): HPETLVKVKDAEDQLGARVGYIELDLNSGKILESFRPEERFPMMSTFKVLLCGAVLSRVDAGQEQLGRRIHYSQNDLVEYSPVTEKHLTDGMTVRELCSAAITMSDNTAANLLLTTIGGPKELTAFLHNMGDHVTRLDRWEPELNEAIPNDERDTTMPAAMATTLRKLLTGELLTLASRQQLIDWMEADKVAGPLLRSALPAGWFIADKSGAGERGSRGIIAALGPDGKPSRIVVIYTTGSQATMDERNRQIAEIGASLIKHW
Protocol: as §1, §2, §3

[6] = Experiment 1, enzyme 0.4 nM, read-out: IC50 Type C AmpC
[7] = BAA2146, Table 2, BAA-2146 Klebsiella pneumoniae

SMILES	IC50 (AmpC; [6])	T1/2 in clinic [1]	MIC [2, 7]	MIC [3]	MIC [4]	MIC [5]	IC50 (CTX-M-1)	IC50 (AmpC; read-out: IC50 AmpC, Experiment 2, enzyme 1.6 nM)	IC50 (AmpC; read-out: IC50 Type C AmpC, Experiment 1, enzyme 0.4 nM)	IC50 (KPC-2; Experiment 1, read-out: IC50 Type A KPC-2)	IC50 (KPC-2; Experiment 2, enzyme 1.28 nM, read-out: IC50 KPC-2)	IC50 (OXA-10)	IC50 (TEM-1; Experiment 1, enzyme 0.25 nM, read-out: IC50 ESBLs type TEM-1)	IC50 (TEM-1; Experiment 2, enzyme 1 nM, read-out: IC50 TEM-1)	MIC ([2]; BAA2146, first Table 4, BAA-2146 Klebsiella pneumoniae)
O=C(NC1CCNCC1)[C@@H]1CC[C@@H]2CN1C(=O)N2OS(=O)(=O)O [MK-7655, reference compound]	49.5 nM	1.7 h	> 16 µg/mL	> 16 µg/mL	> 16 µg/mL	> 16 µg/mL	–	–	–	–	–	–	–	–	–
O=C(NC1CC2(CNC2)C1)[C@@H]1CC[C@@H]2CN1C(=O)N2OS(=O)(=O)O [Compound 2, (2S,5R)-2-((2-azaspiro[3.3]heptan-6-yl)carbamoyl)-7-oxo-1,6-diazabicyclo[3.2.1]octan-6-yl hydrogen sulfate]	–	–	2 µg/mL	2 µg/mL	0.5 µg/mL	2 µg/mL	42.3 nM	17.4 nM	32.6 nM	61.1 nM	34.7 nM	12.2 µM	28.5 nM	15.2 nM	–
NC(=O)[C@@H]1CC[C@@H]2CN1C(=O)N2OS(=O)(=O)O [AVI sodium salt, Avibactam, reference compound]	101 nM	–	> 8 µg/mL	> 8 µg/mL	8 µg/mL	> 8 µg/mL	–	–	–	–	–	25.9 µM	–	–	8 µg/mL
